From ChEMBL document CHEMBL4507268 (2021)

Legend:
Settings in all cases: Compound concentration 1000.0 nM
[1] = target: Serine/threonine-protein kinase PAK 1 (Homo sapiens) (UniProt Q13153)
[2] = target: Mitogen-activated protein kinase kinase kinase 13 (Homo sapiens) (UniProt O43283)
[3] = target: Cyclin-dependent kinase-like 3 (Homo sapiens) (UniProt Q8IVW4)
[4] = target: Rho-associated protein kinase 2 (Homo sapiens) (UniProt O75116)
[5] = target: Glycogen synthase kinase-3 alpha (Homo sapiens) (UniProt P49840)
Sequence of Glycogen synthase kinase-3 alpha (Homo sapiens) (P49840 2-483 limits assumed): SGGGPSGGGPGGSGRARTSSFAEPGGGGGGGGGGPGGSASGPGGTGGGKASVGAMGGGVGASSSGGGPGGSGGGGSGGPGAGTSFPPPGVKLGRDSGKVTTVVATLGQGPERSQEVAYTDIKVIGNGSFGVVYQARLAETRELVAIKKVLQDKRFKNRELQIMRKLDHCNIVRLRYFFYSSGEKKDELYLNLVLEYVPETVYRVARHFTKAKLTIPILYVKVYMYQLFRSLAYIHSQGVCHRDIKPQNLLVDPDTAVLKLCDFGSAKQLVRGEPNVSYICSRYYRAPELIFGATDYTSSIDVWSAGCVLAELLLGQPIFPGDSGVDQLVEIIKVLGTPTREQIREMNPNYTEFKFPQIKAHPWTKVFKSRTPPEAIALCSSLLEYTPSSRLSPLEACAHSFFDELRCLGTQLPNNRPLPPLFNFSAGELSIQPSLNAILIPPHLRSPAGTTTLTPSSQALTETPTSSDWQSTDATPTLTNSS

[6] = target: Serine/threonine-protein kinase LATS1 (Homo sapiens) (UniProt O95835)
Sequence of Serine/threonine-protein kinase LATS1 (Homo sapiens) (O95835 whole entry): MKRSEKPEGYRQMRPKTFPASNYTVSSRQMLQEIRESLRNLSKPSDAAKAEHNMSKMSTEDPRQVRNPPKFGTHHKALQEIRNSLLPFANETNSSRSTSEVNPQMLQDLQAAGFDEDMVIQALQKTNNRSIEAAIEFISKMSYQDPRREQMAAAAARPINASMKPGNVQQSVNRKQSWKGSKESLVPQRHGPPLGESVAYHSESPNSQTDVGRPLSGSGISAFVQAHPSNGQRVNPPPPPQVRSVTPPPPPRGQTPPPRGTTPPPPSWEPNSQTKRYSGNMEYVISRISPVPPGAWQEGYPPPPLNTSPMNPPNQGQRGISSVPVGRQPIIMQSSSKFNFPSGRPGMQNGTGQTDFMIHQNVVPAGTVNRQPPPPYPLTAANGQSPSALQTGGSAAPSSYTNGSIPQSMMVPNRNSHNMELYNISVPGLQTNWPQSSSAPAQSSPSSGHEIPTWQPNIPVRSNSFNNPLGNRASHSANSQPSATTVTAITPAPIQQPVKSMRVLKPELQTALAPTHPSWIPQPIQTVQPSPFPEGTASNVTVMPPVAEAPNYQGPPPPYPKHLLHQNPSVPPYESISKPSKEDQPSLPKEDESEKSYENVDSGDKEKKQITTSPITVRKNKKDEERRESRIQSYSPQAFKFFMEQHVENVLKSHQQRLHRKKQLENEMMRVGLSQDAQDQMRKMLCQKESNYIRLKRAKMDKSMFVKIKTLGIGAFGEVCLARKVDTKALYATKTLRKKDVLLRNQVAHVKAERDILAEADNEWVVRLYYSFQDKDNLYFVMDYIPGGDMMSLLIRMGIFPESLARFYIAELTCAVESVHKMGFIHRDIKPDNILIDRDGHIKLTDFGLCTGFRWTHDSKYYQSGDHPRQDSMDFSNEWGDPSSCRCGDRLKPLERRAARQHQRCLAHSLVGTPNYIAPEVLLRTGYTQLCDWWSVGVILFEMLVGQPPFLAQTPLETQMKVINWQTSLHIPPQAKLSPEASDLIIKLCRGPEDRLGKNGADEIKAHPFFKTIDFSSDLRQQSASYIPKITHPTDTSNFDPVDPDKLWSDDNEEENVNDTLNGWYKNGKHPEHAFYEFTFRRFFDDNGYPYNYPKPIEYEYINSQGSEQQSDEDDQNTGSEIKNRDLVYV

[7] = target: Calcium/calmodulin-dependent protein kinase type II subunit gamma (Homo sapiens) (UniProt Q13555)
[8] = target: T1, Serine/threonine-protein kinase D2 (Homo sapiens) (UniProt Q9BZL6)
T1 sequence (whole entry): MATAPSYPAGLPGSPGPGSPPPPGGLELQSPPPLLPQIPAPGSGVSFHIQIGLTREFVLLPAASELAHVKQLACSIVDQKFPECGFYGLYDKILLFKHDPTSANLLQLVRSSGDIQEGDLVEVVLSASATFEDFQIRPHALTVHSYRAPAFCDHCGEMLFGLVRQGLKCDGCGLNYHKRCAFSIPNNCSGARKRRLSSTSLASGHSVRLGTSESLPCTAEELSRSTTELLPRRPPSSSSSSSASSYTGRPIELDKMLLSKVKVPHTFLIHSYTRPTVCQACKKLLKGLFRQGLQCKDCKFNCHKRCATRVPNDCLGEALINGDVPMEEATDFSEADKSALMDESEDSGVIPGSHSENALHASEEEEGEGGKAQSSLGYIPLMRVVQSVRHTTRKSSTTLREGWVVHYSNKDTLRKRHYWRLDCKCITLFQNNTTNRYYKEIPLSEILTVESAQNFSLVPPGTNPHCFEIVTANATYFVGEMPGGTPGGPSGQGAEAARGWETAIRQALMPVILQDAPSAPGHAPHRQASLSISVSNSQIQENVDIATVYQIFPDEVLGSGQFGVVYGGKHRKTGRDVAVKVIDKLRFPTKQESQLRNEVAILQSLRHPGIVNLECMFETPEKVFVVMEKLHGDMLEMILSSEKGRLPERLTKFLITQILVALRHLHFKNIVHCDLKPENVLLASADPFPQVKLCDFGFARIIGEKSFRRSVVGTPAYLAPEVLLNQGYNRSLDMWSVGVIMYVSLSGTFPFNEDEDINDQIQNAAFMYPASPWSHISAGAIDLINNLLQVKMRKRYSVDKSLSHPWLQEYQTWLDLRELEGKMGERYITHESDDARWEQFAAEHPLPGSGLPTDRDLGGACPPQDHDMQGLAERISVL

[9] = target: Cyclin-dependent kinase 14 (Homo sapiens) (UniProt O94921)
Sequence of Cyclin-dependent kinase 14 (Homo sapiens) (O94921 whole entry): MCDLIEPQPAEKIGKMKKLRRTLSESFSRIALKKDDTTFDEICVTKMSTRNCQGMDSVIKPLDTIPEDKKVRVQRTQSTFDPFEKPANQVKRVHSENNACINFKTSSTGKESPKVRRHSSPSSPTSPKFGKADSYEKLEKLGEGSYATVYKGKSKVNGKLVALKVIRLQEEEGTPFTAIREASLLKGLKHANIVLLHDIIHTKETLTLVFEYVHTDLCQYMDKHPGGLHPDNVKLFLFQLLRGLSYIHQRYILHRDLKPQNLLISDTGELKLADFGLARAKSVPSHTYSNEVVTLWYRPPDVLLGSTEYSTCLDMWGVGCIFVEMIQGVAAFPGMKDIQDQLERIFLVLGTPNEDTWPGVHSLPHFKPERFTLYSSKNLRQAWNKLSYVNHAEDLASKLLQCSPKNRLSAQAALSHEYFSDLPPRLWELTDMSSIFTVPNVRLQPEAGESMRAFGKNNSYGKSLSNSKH

[10] = target: Calcium/calmodulin-dependent protein kinase kinase 1 (Homo sapiens) (UniProt Q8N5S9)
Sequence of Calcium/calmodulin-dependent protein kinase kinase 1 (Homo sapiens) (Q8N5S9 whole entry, looked up): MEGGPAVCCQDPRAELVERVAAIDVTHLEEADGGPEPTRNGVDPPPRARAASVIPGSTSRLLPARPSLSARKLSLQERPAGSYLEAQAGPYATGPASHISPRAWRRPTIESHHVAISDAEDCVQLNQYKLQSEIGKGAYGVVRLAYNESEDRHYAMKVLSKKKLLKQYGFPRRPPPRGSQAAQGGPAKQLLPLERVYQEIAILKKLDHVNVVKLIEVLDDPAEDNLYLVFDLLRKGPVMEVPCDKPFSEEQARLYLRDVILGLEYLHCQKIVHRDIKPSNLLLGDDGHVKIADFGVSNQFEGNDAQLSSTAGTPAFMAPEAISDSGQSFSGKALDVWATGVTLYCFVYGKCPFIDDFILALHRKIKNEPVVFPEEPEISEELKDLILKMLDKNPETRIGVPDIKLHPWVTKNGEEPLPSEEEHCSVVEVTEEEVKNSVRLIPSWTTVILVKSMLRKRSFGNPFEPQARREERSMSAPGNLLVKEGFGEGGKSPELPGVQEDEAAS

[11] = target: Serine/threonine-protein kinase pim-1 (Homo sapiens) (UniProt P11309)
Sequence of Serine/threonine-protein kinase pim-1 (Homo sapiens) (P11309 whole entry, looked up): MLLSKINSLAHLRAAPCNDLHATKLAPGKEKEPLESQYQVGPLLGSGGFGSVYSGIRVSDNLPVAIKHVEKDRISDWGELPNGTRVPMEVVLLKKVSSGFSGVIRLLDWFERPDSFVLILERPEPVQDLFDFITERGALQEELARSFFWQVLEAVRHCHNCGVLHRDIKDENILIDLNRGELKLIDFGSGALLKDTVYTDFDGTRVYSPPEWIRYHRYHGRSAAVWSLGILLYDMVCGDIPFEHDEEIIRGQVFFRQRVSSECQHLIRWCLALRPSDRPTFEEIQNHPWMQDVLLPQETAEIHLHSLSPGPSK

[12] = target: T2, Ephrin type-A receptor 3 (Homo sapiens) (UniProt P29320)
T2 sequence (whole entry): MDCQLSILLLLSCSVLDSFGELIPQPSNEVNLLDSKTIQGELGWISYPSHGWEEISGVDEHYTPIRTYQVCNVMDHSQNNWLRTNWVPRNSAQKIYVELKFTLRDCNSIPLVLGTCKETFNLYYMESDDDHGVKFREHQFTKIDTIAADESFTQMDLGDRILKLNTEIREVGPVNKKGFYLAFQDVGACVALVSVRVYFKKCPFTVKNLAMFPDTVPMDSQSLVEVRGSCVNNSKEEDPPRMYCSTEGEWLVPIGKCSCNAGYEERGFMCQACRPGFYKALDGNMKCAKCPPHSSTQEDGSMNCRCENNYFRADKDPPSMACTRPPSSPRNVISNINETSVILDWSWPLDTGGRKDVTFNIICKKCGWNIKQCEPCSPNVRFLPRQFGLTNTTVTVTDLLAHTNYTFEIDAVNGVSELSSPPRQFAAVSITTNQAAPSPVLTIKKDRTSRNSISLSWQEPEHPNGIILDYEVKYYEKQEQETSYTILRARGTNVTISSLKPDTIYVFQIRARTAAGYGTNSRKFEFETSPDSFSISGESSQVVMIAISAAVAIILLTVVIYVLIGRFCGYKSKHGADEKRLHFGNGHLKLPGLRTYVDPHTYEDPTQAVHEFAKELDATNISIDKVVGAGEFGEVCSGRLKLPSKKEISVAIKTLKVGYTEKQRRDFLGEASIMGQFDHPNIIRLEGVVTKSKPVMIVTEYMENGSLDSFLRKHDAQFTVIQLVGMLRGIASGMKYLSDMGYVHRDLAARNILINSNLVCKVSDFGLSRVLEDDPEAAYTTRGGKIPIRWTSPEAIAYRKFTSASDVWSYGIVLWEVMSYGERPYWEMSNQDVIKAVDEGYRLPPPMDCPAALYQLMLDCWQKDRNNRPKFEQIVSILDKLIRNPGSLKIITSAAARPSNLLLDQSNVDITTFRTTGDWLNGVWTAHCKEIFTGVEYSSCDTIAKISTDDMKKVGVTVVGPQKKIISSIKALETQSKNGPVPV

[13] = target: Rho-associated protein kinase 1 (Homo sapiens) (UniProt Q13464)
[14] = target: Serine/threonine-protein kinase Nek7 (Homo sapiens) (UniProt Q8TDX7)
Sequence of Serine/threonine-protein kinase Nek7 (Homo sapiens) (Q8TDX7 whole entry, looked up): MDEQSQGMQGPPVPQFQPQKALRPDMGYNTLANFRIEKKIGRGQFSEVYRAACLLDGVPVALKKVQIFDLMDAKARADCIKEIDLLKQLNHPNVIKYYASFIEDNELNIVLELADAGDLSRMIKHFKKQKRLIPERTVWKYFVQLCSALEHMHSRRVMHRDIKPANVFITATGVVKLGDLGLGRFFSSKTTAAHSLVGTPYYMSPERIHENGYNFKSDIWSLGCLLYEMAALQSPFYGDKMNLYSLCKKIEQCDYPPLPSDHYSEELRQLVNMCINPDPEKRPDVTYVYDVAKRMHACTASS

[15] = tested on: Epidermal growth factor receptor (Homo sapiens), P00533 [L858R,T790M]

Measured: residual activity

Sequence of Mitogen-activated protein kinase kinase kinase 13 (Homo sapiens) (O43283 whole entry): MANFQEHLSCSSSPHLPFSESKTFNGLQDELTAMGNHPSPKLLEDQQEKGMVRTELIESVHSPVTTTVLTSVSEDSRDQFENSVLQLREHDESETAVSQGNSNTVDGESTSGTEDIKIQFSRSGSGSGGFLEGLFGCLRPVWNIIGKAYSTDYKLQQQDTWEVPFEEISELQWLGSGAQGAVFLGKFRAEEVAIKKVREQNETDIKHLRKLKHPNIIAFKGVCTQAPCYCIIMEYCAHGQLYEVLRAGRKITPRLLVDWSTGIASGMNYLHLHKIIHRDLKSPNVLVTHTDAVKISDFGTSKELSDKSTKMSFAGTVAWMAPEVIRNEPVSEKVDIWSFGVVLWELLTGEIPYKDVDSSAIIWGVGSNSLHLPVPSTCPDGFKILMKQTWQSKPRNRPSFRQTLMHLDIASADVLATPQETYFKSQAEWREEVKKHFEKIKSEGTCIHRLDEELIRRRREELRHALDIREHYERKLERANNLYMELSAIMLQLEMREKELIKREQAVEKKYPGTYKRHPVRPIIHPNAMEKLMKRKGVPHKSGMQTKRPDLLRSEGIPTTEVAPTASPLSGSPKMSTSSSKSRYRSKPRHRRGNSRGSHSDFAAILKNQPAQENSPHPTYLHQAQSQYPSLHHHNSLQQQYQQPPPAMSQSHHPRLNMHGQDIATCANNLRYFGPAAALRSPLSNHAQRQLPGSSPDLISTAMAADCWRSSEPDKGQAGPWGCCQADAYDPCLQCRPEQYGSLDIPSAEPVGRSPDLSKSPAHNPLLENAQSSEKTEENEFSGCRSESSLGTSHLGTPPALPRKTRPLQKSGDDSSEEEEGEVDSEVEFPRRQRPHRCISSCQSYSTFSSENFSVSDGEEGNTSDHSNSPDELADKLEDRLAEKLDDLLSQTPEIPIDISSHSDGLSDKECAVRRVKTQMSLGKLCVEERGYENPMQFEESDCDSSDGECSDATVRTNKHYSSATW
Sequence of Serine/threonine-protein kinase PAK 1 (Homo sapiens) (Q13153 whole entry): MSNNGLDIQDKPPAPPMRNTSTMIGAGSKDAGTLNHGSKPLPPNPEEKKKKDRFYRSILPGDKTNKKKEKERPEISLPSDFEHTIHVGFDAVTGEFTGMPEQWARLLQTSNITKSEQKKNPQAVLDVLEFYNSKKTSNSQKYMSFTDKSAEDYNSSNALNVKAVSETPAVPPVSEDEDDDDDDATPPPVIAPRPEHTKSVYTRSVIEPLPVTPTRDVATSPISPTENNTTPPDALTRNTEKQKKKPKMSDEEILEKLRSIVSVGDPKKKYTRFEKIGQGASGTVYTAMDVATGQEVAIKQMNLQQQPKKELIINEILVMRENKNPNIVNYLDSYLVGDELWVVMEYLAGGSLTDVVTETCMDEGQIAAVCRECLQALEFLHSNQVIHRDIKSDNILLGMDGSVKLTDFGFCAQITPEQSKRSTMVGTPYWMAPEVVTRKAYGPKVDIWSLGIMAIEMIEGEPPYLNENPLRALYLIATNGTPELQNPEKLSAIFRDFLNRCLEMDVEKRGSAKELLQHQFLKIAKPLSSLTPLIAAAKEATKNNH

Cc1nc(C2CCN(C(=O)c3ccc(OC(F)(F)F)cc3N)CC2)c2ncc(N3CCN(C)CC3)cc2n1 [BAY-693]
inactive: [1] 100% | [2] 100% | [3] 92% | [4] 91% | [5] 85% | [6] 78% | [7] 100% | [8] 92% | [9] 100% | [10] 100% | [11] 100% | [12] 92% | [13] 100% | [14] 100% | [15] 88%

CN1CCN(c2cnc3c(C4CCN(C(=O)c5ccc(OC(F)(F)F)cc5N)CC4)ncnc3c2)CC1 [BAY-885]
inactive: [1] 93% | [2] 100% | [3] 92% | [4] 100% | [5] 100% | [6] 81% | [7] 100% | [8] 100% | [9] 100% | [10] 100% | [11] 90% | [12] 100% | [13] 100% | [14] 100% | [15] 95%
